In patent US20240099301A1, “Disinfecting and Sanitizing Composition, Method for Preparing the Composition and Use of Same” (SOCIEDAD QUÍMICA ECOLÓGICA SPA, priority 2021, published 2024):

Key:
[1] = Comparison of products: filmogenic properties; assay type: physicochemical
[2] = Comparison of products: corrosivity (pH); assay type: physicochemical
people [3] = test: Comparison of products: handling hazards (adverse effects), harm to people; set-up: species or system human
people [4] = test: Comparison of products: application in the presence of people; set-up: species or system human
[5] = Comparison of products: duration of disinfectant effectiveness
[6] = Comparison of products: stability; assay type: physicochemical
[7] = Comparison of products: compatibility with detergents; assay type: physicochemical
[8] = room temperature; cited from earlier work

Row | Compound | Filmogenic properties [1] | Corrosivity: irritancy [2] | Corrosivity: pH [2] | Handling hazards (adverse effects) (people [3]; contact with skin and eyes) | Handling hazards (adverse effects) (people [3]; exposure to high concentrations) | Application in the presence of people (people [4]) | Duration of effectiveness [5] | Stability [6] | Compatibility with detergents [7] | concentration with bactericidal activity [8] | concentration with bacteriostatic activity [8]
1 | OCl [Sodium hypochlorite] | No | irritant | ~11 | Liquid chlorine causes severe burns | cause nausea and vomiting. | No and ventilation recommended | 1 days | Not stable, chlorine solutions | Not compatible. Sodium hypochlorite |  | 
2 | OO [hydrogen peroxide] |  |  |  |  |  |  |  |  |  | 6% | 3%
